Assay results as given in ChEMBL document CHEMBL1152667, “Synthesis and radiopharmacological investigation of 3-[4'-[(18)F]fluorobenzylidene]indolin-2-one as possible tyrosine kinase inhibitor” (Bioorg Med Chem, 2009).

Columns and labels:
Format in all cases: ADME, organism-based
[1] = test system: Femur; experiment: Biodistribution in Wistar rat femur at 1.7 MBq, iv administered as single dose measured after 10 mins post-injection by gamma counting; details: in vivo
[2] = Ratio of drug level in lung to blood in Wistar rat at 1.7 MBq, iv administered as single dose measured after 60 mins post-injection
[3] = Metabolic stability in Wistar rat blood assessed as compound remaining at 30 MBq, iv after 3 mins by radio-HPLC analysis; details: read-out: Stability
[4] = test system: Harderian gland; experiment: Biodistribution in Wistar rat harderian gland at 1.7 MBq, iv administered as single dose measured after 30 mins post-injection by gamma counting; details: in vivo, 0.5 h
[5] = test system: Liver; experiment: Biodistribution in Wistar rat liver at 1.7 MBq, iv administered as single dose measured after 30 mins post-injection by gamma counting; details: in vivo, 0.5 h
[6] = test system: Kidney; experiment: Biodistribution in Wistar rat kidney at 1.7 MBq, iv administered as single dose measured after 60 mins post-injection by gamma counting; details: in vivo, 1 h
[7] = test system: Lung; experiment: Biodistribution in Wistar rat lung at 1.7 MBq, iv administered as single dose measured after 60 mins post-injection by gamma counting; details: in vivo, 1 h
[8] = test system: Harderian gland; experiment: Biodistribution in Wistar rat harderian gland at 1.7 MBq, iv administered as single dose measured after 60 mins post-injection by gamma counting; details: in vivo, 1 h
[9] = Ratio of drug level in harderian gland to blood in Wistar rat at 1.7 MBq, iv administered as single dose measured after 5 mins post-injection
[10] = Ratio of drug level in brown adipose tissue to blood in Wistar rat at 1.7 MBq, iv administered as single dose measured after 5 mins post-injection
[11] = Ratio of drug level in adrenal gland to blood in Wistar rat at 1.7 MBq, iv administered as single dose measured after 60 mins post-injection
[12] = Ratio of drug level in harderian gland to blood in Wistar rat at 1.7 MBq, iv administered as single dose measured after 60 mins post-injection
[13] = Biodistribution in Wistar rat hair/skin assessed as standard uptake value at 1.7 MBq, iv administered as single dose measured after 30 mins post-injection by gamma counting; details: in vivo, 0.5 h
[14] = test system: Pancreas; experiment: Biodistribution in Wistar rat pancreas assessed as standard uptake value at 1.7 MBq, iv administered as single dose measured after 30 mins post-injection by gamma counting; details: in vivo, 0.5 h
[15] = test system: Spleen; experiment: Biodistribution in Wistar rat spleen assessed as standard uptake value at 1.7 MBq, iv administered as single dose measured after 30 mins post-injection by gamma counting; details: in vivo, 0.5 h
[16] = test system: Blood; experiment: Biodistribution in Wistar rat blood assessed as standard uptake value at 1.7 MBq, iv administered as single dose measured after 1 min post-injection by gamma counting; details: in vivo
[17] = Biodistribution in Wistar rat brown adipose tissue assessed as standard uptake value at 1.7 MBq, iv administered as single dose measured after 1 min post-injection by gamma counting; details: in vivo
[18] = test system: Adrenal gland; experiment: Biodistribution in Wistar rat adrenal gland assessed as standard uptake value at 1.7 MBq, iv administered as single dose measured after 1 min post-injection by gamma counting; details: in vivo
[19] = Biodistribution in Wistar rat thyroid gland assessed as standard uptake value at 1.7 MBq, iv administered as single dose measured after 1 min post-injection by gamma counting; details: in vivo
[20] = test system: Harderian gland; experiment: Biodistribution in Wistar rat harderian gland assessed as standard uptake value at 1.7 MBq, iv administered as single dose measured after 1 min post-injection by gamma counting; details: in vivo
[21] = Biodistribution in Wistar rat brown adipose tissue assessed as standard uptake value at 1.7 MBq, iv administered as single dose measured after 5 mins post-injection by gamma counting; details: in vivo
[22] = Biodistribution in Wistar rat thyroid gland assessed as standard uptake value at 1.7 MBq, iv administered as single dose measured after 30 mins post-injection by gamma counting; details: in vivo, 0.5 h
[23] = test system: Kidney; experiment: Biodistribution in Wistar rat kidney assessed as standard uptake value at 1.7 MBq, iv administered as single dose measured after 60 mins post-injection by gamma counting; details: in vivo, 1 h
[24] = Biodistribution in Wistar rat adipose tissue assessed as standard uptake value at 1.7 MBq, iv administered as single dose measured after 60 mins post-injection by gamma counting; details: in vivo, 1 h
[25] = Biodistribution in Wistar rat thyroid gland assessed as standard uptake value at 1.7 MBq, iv administered as single dose measured after 60 mins post-injection by gamma counting; details: in vivo, 1 h
[26] = test system: Femur; experiment: Biodistribution in Wistar rat femur assessed as standard uptake value at 1.7 MBq, iv administered as single dose measured after 60 mins post-injection by gamma counting; details: in vivo, 1 h
[27] = test system: Spleen; experiment: Biodistribution in Wistar rat spleen assessed as standard uptake value at 1.7 MBq, iv administered as single dose measured after 5 mins post-injection by gamma counting; details: in vivo
[28] = Biodistribution in Wistar rat adipose tissue assessed as standard uptake value at 1.7 MBq, iv administered as single dose measured after 5 mins post-injection by gamma counting; details: in vivo
[29] = test system: Muscle tissue; experiment: Biodistribution in Wistar rat muscle assessed as standard uptake value at 1.7 MBq, iv administered as single dose measured after 5 mins post-injection by gamma counting; details: in vivo
[30] = test system: Blood; experiment: Biodistribution in Wistar rat blood assessed as standard uptake value at 1.7 MBq, iv administered as single dose measured after 10 mins post-injection by gamma counting; details: in vivo
[31] = test system: Brain; experiment: Biodistribution in Wistar rat brain assessed as standard uptake value at 1.7 MBq, iv administered as single dose measured after 10 mins post-injection by gamma counting; details: in vivo
[32] = test system: Pancreas; experiment: Biodistribution in Wistar rat pancreas at 1.7 MBq, iv administered as single dose measured after 1 min post-injection by gamma counting; details: in vivo
[33] = test system: Kidney; experiment: Biodistribution in Wistar rat kidney at 1.7 MBq, iv administered as single dose measured after 1 min post-injection by gamma counting; details: in vivo
[34] = test system: Heart; experiment: Biodistribution in Wistar rat heart at 1.7 MBq, iv administered as single dose measured after 1 min post-injection by gamma counting; details: in vivo
[35] = Biodistribution in Wistar rat thyroid gland at 1.7 MBq, iv administered as single dose measured after 1 min post-injection by gamma counting; details: in vivo
[36] = test system: Adrenal gland; experiment: Biodistribution in Wistar rat adrenal gland assessed as standard uptake value at 1.7 MBq, iv administered as single dose measured after 10 mins post-injection by gamma counting; details: in vivo
[37] = test system: Thymus; experiment: Biodistribution in Wistar rat thymus assessed as standard uptake value at 1.7 MBq, iv administered as single dose measured after 10 mins post-injection by gamma counting; details: in vivo
[38] = Biodistribution in Wistar rat thyroid gland assessed as standard uptake value at 1.7 MBq, iv administered as single dose measured after 10 mins post-injection by gamma counting; details: in vivo
[39] = test system: Kidney; experiment: Biodistribution in Wistar rat kidney at 1.7 MBq, iv administered as single dose measured after 5 mins post-injection by gamma counting; details: in vivo
[40] = test system: Heart; experiment: Biodistribution in Wistar rat heart at 1.7 MBq, iv administered as single dose measured after 5 mins post-injection by gamma counting; details: in vivo
[41] = test system: Lung; experiment: Biodistribution in Wistar rat lung at 1.7 MBq, iv administered as single dose measured after 5 mins post-injection by gamma counting; details: in vivo

Question: With O=C1Nc2ccccc2/C1=C/c1ccc([18F])cc1 as the compound, how does the Drug uptake [1] read?
Answer: 0.32 %ID

Question: What about the Kp at 1 h [2] of the same compound?
Answer: 1.4

Question: And the remaining at 0.05 h [3]?
Answer: 54%

Question: What about the Drug uptake [4] of the same compound?
Answer: 0.14 %ID

Question: What about the Drug uptake [5] of the same compound?
Answer: 8.95 %ID

Question: What about the Drug uptake [6] of the same compound?
Answer: 0.91 %ID

Question: What about the Drug uptake [7] of the same compound?
Answer: 0.19 %ID

Question: And the Drug uptake [8]?
Answer: 0.06 %ID

Question: And the Kp at 5 min [9]?
Answer: 4.4

Question: And the Kp at 5 min [10]?
Answer: 4.1

Question: And the Kp at 1 h [11]?
Answer: 8.9

Question: What about the Kp at 1 h [12] of the same compound?
Answer: 6.8

Question: And the SUV [13]?
Answer: 0.48%

Question: And the SUV [14]?
Answer: 0.55%

Question: What about the SUV [15] of the same compound?
Answer: 0.28%

Question: And the SUV [16]?
Answer: 0.83%

Question: And the SUV [17]?
Answer: 1.42%

Question: And the SUV [18]?
Answer: 4.95%

Question: And the SUV [19]?
Answer: 1.55%

Question: And the SUV [20]?
Answer: 1.92%

Question: What about the SUV [21] of the same compound?
Answer: 2.29%

Question: What about the SUV [22] of the same compound?
Answer: 0.4%

Question: What about the SUV [23] of the same compound?
Answer: 0.99%

Question: What about the SUV [24] of the same compound?
Answer: 1.15%

Question: What about the SUV [25] of the same compound?
Answer: 0.16%

Question: And the SUV [26]?
Answer: 0.19%

Question: What about the SUV [27] of the same compound?
Answer: 0.79%

Question: What about the SUV [28] of the same compound?
Answer: 1.21%

Question: And the SUV [29]?
Answer: 0.83%

Question: And the SUV [30]?
Answer: 0.47%

Question: What about the SUV [31] of the same compound?
Answer: 0.97%

Question: And the Drug uptake [32]?
Answer: 0.56 %ID

Question: What about the Drug uptake [33] of the same compound?
Answer: 3.13 %ID

Question: What about the Drug uptake [34] of the same compound?
Answer: 1.01 %ID

Question: What about the Drug uptake [35] of the same compound?
Answer: 0.09 %ID

Question: What about the SUV [36] of the same compound?
Answer: 3.2%

Question: And the SUV [37]?
Answer: 0.53%

Question: And the SUV [38]?
Answer: 0.75%

Question: And the Drug uptake [39]?
Answer: 2.51 %ID

Question: What about the Drug uptake [40] of the same compound?
Answer: 0.54 %ID

Question: And the Drug uptake [41]?
Answer: 1.02 %ID
